From paper PMC12136031 (Science Advances, 2025)
One block for each molecule: values may come before it.

Key:
TFEB = experiment: Immunoblot of TFEB in OC43-infected BEAS-2B cells; format: cell-based, human; conditions: for Decline in TFEB protein levels during viral infection: OC43, mTORC1 inhibition (10 nM); for TFEB protein during viral infection: OC43, cotreatment with inhibitors of ubiquitin-proteasome system
[1] = molecular target: T1, DCAF7 recombinant protein, P61962; experiment: streptavidin pull-down (peptide binding assay), DCAF7 immunoblot densitometry; conditions: chain shown with the change; n = 3; parent: est. 1.0; read off a plot
T1 chain: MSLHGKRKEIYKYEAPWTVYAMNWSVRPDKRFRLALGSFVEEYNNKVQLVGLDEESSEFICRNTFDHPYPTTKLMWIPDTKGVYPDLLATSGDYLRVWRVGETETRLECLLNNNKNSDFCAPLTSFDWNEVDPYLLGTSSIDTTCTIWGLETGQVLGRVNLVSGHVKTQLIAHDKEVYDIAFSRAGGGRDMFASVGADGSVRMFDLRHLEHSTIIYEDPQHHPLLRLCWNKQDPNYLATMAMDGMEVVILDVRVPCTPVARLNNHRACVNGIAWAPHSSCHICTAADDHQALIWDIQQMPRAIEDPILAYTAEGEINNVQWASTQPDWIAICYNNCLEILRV

Molecule: CCC(=O)N1CCN(c2ccc(-n3c(=O)ccc4cnc5ccc(-c6cnc7ccccc7c6)cc5c43)cc2C(F)(F)F)CC1 [Torin1]
- Decline in TFEB protein levels during viral infection (TFEB): did not rescue

Molecule: NS(=O)(=O)OC[C@H]1C[C@@H](Nc2ccnc3cc(-c4cccc(SC(F)(F)F)c4)nn23)[C@H](O)[C@@H]1O [TAK-243]
- TFEB protein during viral infection (TFEB): substantially preserved

Molecule: NS(=O)(=O)OC[C@@H]1C[C@@H](n2ccc3c(N[C@H]4CCc5ccccc54)ncnc32)C[C@@H]1O [MLN4924]
- TFEB protein during viral infection (TFEB): substantially preserved

Molecule: CC(C)C[C@H](NC(=O)[C@H](CCc1ccccc1)NC(=O)CN1CCOCC1)C(=O)N[C@@H](Cc1ccccc1)C(=O)N[C@@H](CC(C)C)C(=O)[C@@]1(C)CO1 [carfilzomib]
- TFEB protein during viral infection (TFEB): substantially preserved

Molecule: CO[C@H]1C[C@@H]2CC[C@@H](C)[C@@](O)(O2)C(=O)C(=O)N2CCCC[C@H]2C(=O)O[C@H]([C@H](C)C[C@@H]2CC[C@@H](O)[C@H](OC)C2)CC(=O)[C@H](C)/C=C(\C)[C@@H](O)[C@@H](OC)C(=O)[C@H](C)C[C@H](C)/C=C/C=C/C=C/1C [rapamycin]
- Decline in TFEB protein levels during viral infection (TFEB): did not rescue

- response [1]: 0.5
Molecule: GNAAPNAPMA [Biotinylated TFEB peptide, region 136 to 145, unmodified sequence (I), P19484 S138A; S142A]

- response [1]: 2.9
Molecule: GNDAPNDPMA [Biotinylated TFEB peptide, region 136 to 145, unmodified sequence (I), P19484 S138D; S142D]
